Data: patent publication US9156790B2, “Anticancer P21-activated kinase inhibitors” (Ohio State Innovation Foundation, priority 2013, dated 2015)
Like-named read-outs stand apart in the source and are kept apart here. One block for each compound: values may come before it.

Assays:
[1] = test system: TPC1 cells; experiment: MTT cell viability assay, TPC1; type: cell-based, Human; details: 1% FBS, mean±standard deviation (n=3), read-out: IC50 for reducing viability of TPC1 cells versus DMSO control
Text: (§1) Human thyroid cancer BCPAP, TPC1, and FTC133 cell lines were the generous gifts of Drs. Rebecca Schweppe and Bryan Haugen (University of Colorado Denver) (Schweppe et al., The Journal of clinical endocrinology and metabolism 83:4331-4341 (2008)) with permission from the following originating laboratories: BCPAP—Dr. Fabien, Centre Hospitalier Lyon-Sud, France (Fabien et al., Cancer 73:2206-2212 (1994)); TPC1—Dr. Sato, Kanazawa University, Japan (Tanaka et al., Virology 161:62-411 (1987)); and FTC133—Dr. Goretzki, University of Leipzig, Germany (Goretzki et al., Recent Results Cancer Res 118:48-63 (1990)). The obtained cell lines were confirmed for identity by DNA fingerprinting. BCPAP was grown in RPMI 1640 medium (Life Technologies Co., Carlsbad, Calif.) while FTC133 and TPC1 were grown in DMEM (Life Technologies Co.), both supplemented with 10% fetal bovine serum (FBS) and NEAA unless as noted for experiments.
(§2) The effect of OSU-03012 and its derivatives on cell viability was assessed by using the 3-(4,5-dimethylthiazol-2-yl)-2,5-diphenyl-2H-tetrazolium bromide (MTT) assay. Three replicates were performed in each individual experiment, and experiments were repeated at least three separate times. Cells were grown in 96-well plates for 24 hours and were exposed to various concentrations of drugs dissolved in DMSO (final concentration 0.1%) in RPMI 1640 or DMEM containing 1% FBS for 72 hours. 10 μL of 0.5 mg/ml MTT was added to each well and cells were incubated in CO2 at 37° C. for 2 hours. Supernatants were removed from the wells, the reduced MTT dye was solubilized in 100 μL of solution C (12 ml of 1N HCl in 300 mL of isopropanol), and absorbance at 570 nm was determined on a microplate reader.
(§3) We assessed the ability of the compounds to reduce cell viability in vitro by MTT assay after 72 hours of continuous exposure. Results are shown in Table 1 and are depicted as the IC50 vs. simultaneously performed DMSO control.
(§4) ^aThe reported IC50 values are concentrations at which BCPAP, FTC133 and TPC1 cell viability by MTT assays 50% of DMSO control after 72-hours of exposure. Data are presented as mean±standard deviation (n=3). PAK and PDK1 Selectivity In Vivo

[2] = target: T1, Recombinant active PAK 1 (Homo sapiens, UniProt Q13153); experiment: In vitro PAK1 kinase assay (MBP substrate, 32P-ATP); type: biochemical; details: for Relative PAK1 inhibitory potency (comparison in words): in vitro kinase assay, comparison between compounds / with OSU-03012; for Inhibition of PAK1 kinase activity in initial screen: 7.5 μM inhibitor, 2.5 μM ATP, myelin basic protein substrate (FIG. 2A)
T1 construct: purchased Calbiochem
T1 sequence (Q13153 whole entry): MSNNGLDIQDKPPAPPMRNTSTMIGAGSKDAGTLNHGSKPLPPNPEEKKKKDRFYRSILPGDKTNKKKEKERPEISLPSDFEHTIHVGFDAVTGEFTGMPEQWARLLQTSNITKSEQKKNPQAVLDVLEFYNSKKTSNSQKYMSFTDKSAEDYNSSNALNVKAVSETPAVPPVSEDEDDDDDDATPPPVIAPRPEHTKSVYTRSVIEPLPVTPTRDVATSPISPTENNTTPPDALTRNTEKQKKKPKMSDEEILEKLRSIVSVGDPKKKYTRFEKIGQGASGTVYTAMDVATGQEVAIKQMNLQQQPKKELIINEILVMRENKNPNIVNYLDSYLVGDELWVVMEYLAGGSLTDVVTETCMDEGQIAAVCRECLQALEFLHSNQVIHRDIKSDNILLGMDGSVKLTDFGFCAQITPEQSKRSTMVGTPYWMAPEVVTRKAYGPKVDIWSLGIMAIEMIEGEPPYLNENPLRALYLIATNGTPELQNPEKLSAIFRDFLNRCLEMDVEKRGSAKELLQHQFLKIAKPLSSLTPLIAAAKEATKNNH
Experimental: Recombinant active PAK 1 (Calbiochem) was incubated with selected derivatives or 0.1% DMSO in the presence or absence of MBP (Sigma) in a 1× kinase buffer (Cell Signaling). The addition of [γ-32P]-ATP (2.5 μCi/reaction) (Perkin Elmer) started the reaction, which was incubated at 30° C. for 30 minutes. The reaction was terminated by the addition of EDTA. Results were obtained after visualization of ^32P-labeled MBP after separation on 12% polyacrylamide gels and autoradiography. For the Lineweaver-Burk plot analysis, the ratio of radioactive ATP to nonradioactive ATP was not altered. The PAK1 kinase activities are the means of three independent experiments quantified using P81 phosphocellulose paper by a scintillation counter after three washes with 0.75% phosphoric acid.
Screening of OSU-03012 Derivatives to Identify PAK1 Inhibitors. The 17 derivatives along with OSU-03012, each at 7.5 μM, were screened for their ability to inhibit PAK1 activity by in vitro PAK1 kinase assay. The dose was chosen (above the IC50 of OSU-03012) to allow OSU-03012 to serve as a robust positive control. The PAK1 kinase assay was performed using recombinant active PAK1 with myelin basic protein as substrate in the presence of 2.5 μM ATP and 7.5 μM of respective inhibitors.
To further investigate these six compounds, dose-response studies on PAK1 activity were performed by using PAK1 kinase assay. […] We next questioned whether compounds 4 or 15 inhibited PAK1 in an ATP competitive manner as their parent compound OSU-03012.

[3] = test system: BCPAP cells; experiment: MTT cell viability assay, BCPAP; type: cell-based, Human; details: 72-hours of exposure, 1% FBS, mean±standard deviation (n=3), read-out: IC50 for reducing viability of BCPAP cells versus DMSO control
Text: as §1, §2, §3, §4

[4] = test system: FTC133 cells; experiment: MTT cell viability assay, FTC133; type: cell-based, Human; details: 1% FBS, mean±standard deviation (n=3), read-out: IC50 for reducing viability of FTC133 cells versus DMSO control
Text: as §1, §2, §3, §4

[5] = Homo sapiens, TPC1, 72-hours of exposure
[6] = Homo sapiens, FTC-133, 72-hours of exposure

Relative PAK1 inhibitory potency (comparison in words) [2]: did not show any activity
Compound: 1-(4-Aminophenyl)-5-(phenanthren-2-yl)-1H-pyrazol-3-yl) methanol [Compound 6]
IC50 ([1]; 72-hours of exposure): > 10 µM | IC50 [3]: > 10 µM | IC50 ([4]; 72-hours of exposure): > 10 µM

Compound: NCC(=O)Nc1ccc(-n2nc(C(=O)NCc3ccccc3)cc2-c2ccc3ccc4ccccc4c3c2)cc1 [Compound 1, 1-(4-(2-Aminoacetamido)phenyl)-N-benzyl-5-(phenanthren-3-yl)-1H-pyrazole-3-carboxamide]
IC50 [1, 5]: 2.6 ± 0.81 µM | Inhibition of PAK1 kinase activity in initial screen [2]: inhibited PAK1 kinase activity | IC50 ([3]; Homo sapiens, BCPAP): 2.01 ± 0.59 µM | IC50 [4, 6]: 4.78 ± 4.53 µM

Compound: CCNC(=O)c1cc(-c2ccc3ccc4ccccc4c3c2)n(-c2ccc(NC(=O)CN)cc2)n1 [Compound 2, 1-(4-(2-aminoacetamido)phenyl)-N-ethyl-5-(phenanthren-3-yl)-1H-pyrazole-3-carboxamide]
IC50 [1, 5]: 1.81 ± 1.24 µM | IC50 ([3]; Homo sapiens, BCPAP): 2.67 ± 0.82 µM | IC50 [4, 6]: 4.83 ± 4.47 µM

Compound: NCC(=O)Nc1ccc(-n2nc(C(F)(F)F)cc2-c2ccc3ccc4ccccc4c3c2)cc1 [Compound 3, 2-Amino-N-(4-(5-(phenanthren-3-yl)-3-(trifluoromethyl)-1H-pyrazol-1-yl)phenyl)-acetamide]
IC50 [1, 5]: 3.17 ± 1.29 µM | Inhibition of PAK1 kinase activity in initial screen [2]: inhibited PAK1 kinase activity | Relative PAK1 inhibitory potency (comparison in words) [2]: slightly more potent | IC50 ([3]; Homo sapiens, BCPAP): 2.34 ± 0.27 µM | IC50 [4, 6]: 5.32 ± 4.05 µM

Compound: CNC(=O)c1cc(-c2ccc3c(ccc4ccccc43)c2)n(-c2ccc(N)cc2)n1 [Compound 5, 1-(4-Aminophenyl)-N-methyl-5-(phenanthren-2-yl)-1H-pyrazole-3-carboxamide]
IC50 [1, 5]: > 10 µM | Relative PAK1 inhibitory potency (comparison in words) [2]: did not show any activity | IC50 ([3]; Homo sapiens, BCPAP): > 10 µM | IC50 [4, 6]: 5.03 ± 0.25 µM

Compound: CNC(=O)c1cc(-c2ccc3ccc4ccccc4c3c2)n(-c2ccc(NC(=O)CN)cc2)n1 [Compound 7, 1-(4-(2-aminoacetamido)phenyl)-N-methyl-5-(phenanthren-3-yl)-1H-pyrazole-3-carboxamide]
IC50 [1, 5]: 3.67 ± 1.52 µM | IC50 ([3]; Homo sapiens, BCPAP): 3.71 ± 1.82 µM | IC50 [4, 6]: 4.53 ± 2.57 µM

Compound: CNC(=O)c1cc(-c2ccc3c(ccc4ccccc43)c2)n(-c2ccc(NC(=O)CN)cc2)n1 [Compound 8, 1-(4-(2-Aminoacetamido)phenyl)-N-methyl-5-(phenanthren-2-yl)-1H-pyrazole-3-carboxamide]
IC50 [1, 5]: 4.67 ± 4.16 µM | IC50 ([3]; Homo sapiens, BCPAP): 2.9 ± 2.35 µM | IC50 [4, 6]: 3.08 ± 1.63 µM

Compound: NCC(=O)Nc1ccc(-n2nc(CO)cc2-c2ccc3ccc4ccccc4c3c2)cc1 [Compound 9, 2-Amino-N-(4-(3-(hydroxymethyl)-5-(phenanthren-3-yl)-1H-pyrazol-1-yl)phenyl)-acetamide]
IC50 [1, 5]: 2.42 ± 0.13 µM | Relative PAK1 inhibitory potency (comparison in words) [2]: did not show any improvement | IC50 ([3]; Homo sapiens, BCPAP): 4.04 ± 1.38 µM | IC50 [4, 6]: 4.75 ± 2.47 µM

Compound: NCC(=O)Nc1ccc(-n2nc(CO)cc2-c2ccc3c(ccc4ccccc43)c2)cc1 [Compound 10, 2-Amino-N-(4-(3-(hydroxymethyl)-5-(phenanthren-2-yl)-1H-pyrazol-1-yl)phenyl)-acetamide]
IC50 [1, 5]: 7.39 ± 1.9 µM | Inhibition of PAK1 kinase activity in initial screen [2]: inhibited PAK1 kinase activity | Relative PAK1 inhibitory potency (comparison in words) [2]: more potent activity | IC50 ([3]; Homo sapiens, BCPAP): 6.53 ± 2.16 µM | IC50 [4, 6]: 8.95 ± 0.57 µM

Compound: NCCC(=O)Nc1ccc(-n2nc(CO)cc2-c2ccc3c(ccc4ccccc43)c2)cc1 [Compound 12, 3-Amino-N-(4-(3-(hydroxymethyl)-5-(phenanthren-2-yl)-1H-pyrazol-1-yl)phenyl)-propanamide]
IC50 [1, 5]: 5.83 ± 1.73 µM | IC50 ([3]; Homo sapiens, BCPAP): 3.76 ± 1.2 µM | IC50 [4, 6]: 7.55 ± 2.19 µM

Compound: CNC(=O)c1cc(-c2ccc3ccc4ccccc4c3c2)n(-c2ccc(NC(=O)CCN)cc2)n1 [Compound 13, 1-(4-(3-Aminopropanamido)phenyl)-N-methyl-5-(phenanthren-3-yl)-1H-pyrazole-3-carboxamide]
IC50 [1, 5]: 3.62 ± 0.42 µM | Relative PAK1 inhibitory potency (comparison in words) [2]: more potent | IC50 ([3]; Homo sapiens, BCPAP): 2.76 ± 1.56 µM | IC50 [4, 6]: 4.95 ± 3.21 µM

Relative PAK1 inhibitory potency (comparison in words) [2]: more potent
Compound: CNC(=O)c1cc(-c2ccc3c(ccc4ccccc43)c2)n(-c2ccc(NC(=O)CCN)cc2)n1 [Compound 14, 1-(4-(3-aminopropanamido)phenyl)-N-methyl-5-(phenanthren-2-yl)-1 μl-pyrazole-3-carboxamide]
IC50 ([1]; 72-hours of exposure): 5.98 ± 0.28 µM | IC50 [3]: 3.32 ± 1.09 µM | IC50 ([4]; 72-hours of exposure): 5.42 ± 1.56 µM

Compound: Nc1ccc(-n2nc(CO)cc2-c2ccc3ccc4ccccc4c3c2)cc1 [Compound 16, (1-(4-Aminophenyl)-5-(phenanthren-3-yl)-1H-pyrazol-3-yl)methanol]
IC50 [1, 5]: 4.32 ± 2.18 µM | Relative PAK1 inhibitory potency (comparison in words) [2]: did not show any activity | IC50 ([3]; Homo sapiens, BCPAP): > 10 µM | IC50 [4, 6]: > 10 µM

Compound: CNC(=O)c1cc(-c2ccc3ccc4ccccc4c3c2)n(-c2ccc(N)cc2)n1 [Compound 17, 1-(4-Aminophenyl)-N-methyl-5-(phenanthren-3-yl)-1H-pyrazole-3-carboxamide]
IC50 [1, 5]: 8.96 ± 1.17 µM | Relative PAK1 inhibitory potency (comparison in words) [2]: did not show any activity | IC50 ([3]; Homo sapiens, BCPAP): > 10 µM | IC50 [4, 6]: > 10 µM
